SMILES strings stand for the structures.

The target in one data set is VEGFR-2 (Homo sapiens, UniProt P35968). The note with it: little or no inhibition on other kinases; cited from earlier work.
For data set [1], the system named is metastatic gastric/gastroesophageal junction cancer. Particulars: cited from earlier work.
For data set [2], the system named is mouse colon cancer cell MC-38 (PD-L1) xenograft. Put plainly: MC38 (PD-L1) xenograft in human PD-1 transgenic C57 mice. It is filed as in vivo. The note with it: anti-PD-1 antibody 3 mg/kg ip Q2D*7, apatinib 200 mg/kg po QD*14. The protocol: • 1. Study purposes: Human PD-1 transgenic mice were used as test animals. The effects of anti-PD-1 antibody in combination with apartinib on human PD-1 expressed in transgenic C57 mice were evaluated, and the transgenic mice bear mouse colon cancer cell MC-38 (PD-L1) xenograft transfected with PD-L1 gene. • 2. Test antibodies and compounds: The anti-PD-1 antibody was prepared according to the method disclosed in WO2015085847 in which the corresponding code of the antibody is H005-1, and the sequences of the heavy and light chain are shown in SEQ ID NO: 7 and SEQ ID NO: 8 in the present invention. Lot number: P1512, 200 mg/vial, formulated into 20 mg/ml before use. Apatinib mesylate was prepared according to the method disclosed in CN101676267A, lot number: 668160401; molecular weight: 493.58; purity: 99.60%. • 3. Experimental animals: Human PD-1 transgenic C57 mice, specific-pathogen-free (SPF), with different body weights, 50% male and 50% female, were purchased from IsisInnovation Limited, UK. • 4. Drug preparation: Anti-PD-1 antibody (3 mg/kg): anti-PD-1 antibody stock solution (20 mg/ml) was adjusted to a concentration of 0.3 mg/ml with phosphate buffered saline (PBS), and the intraperitoneal injection volume was 0.2 ml/mouse. Apatinib (200 mg/kg): 400 mg apatinib was dissolved in 20 ml of 0.5% sodium carboxymethylcellulose (NaCMC), adjusted to 20 mg/ml, and was administered in 0.2 ml per mouse by gavage. […] The specific drug administration regimen is shown in Table 1. • 5.4 Determination of volume of xenograft and body weight of mice: Tumor volume and body weight were measured twice a week and data were recorded. • 5.5 Statistics: Excel 2003 statistical software was used: the mean was calculated by avg; the SD value was calculated by STDEV; the SEM value was calculated by STDEV/SQRT; the P value indicating the difference between groups is calculated by TTEST. […]
On the technique in general: A xenograft is tissue or cells of one species grown in another, often human tumour cells in immunodeficient mice.

Setting [3] is: apatinib alone compared with placebo.

Chain of VEGFR-2 (P35968 20-1356, species assumed): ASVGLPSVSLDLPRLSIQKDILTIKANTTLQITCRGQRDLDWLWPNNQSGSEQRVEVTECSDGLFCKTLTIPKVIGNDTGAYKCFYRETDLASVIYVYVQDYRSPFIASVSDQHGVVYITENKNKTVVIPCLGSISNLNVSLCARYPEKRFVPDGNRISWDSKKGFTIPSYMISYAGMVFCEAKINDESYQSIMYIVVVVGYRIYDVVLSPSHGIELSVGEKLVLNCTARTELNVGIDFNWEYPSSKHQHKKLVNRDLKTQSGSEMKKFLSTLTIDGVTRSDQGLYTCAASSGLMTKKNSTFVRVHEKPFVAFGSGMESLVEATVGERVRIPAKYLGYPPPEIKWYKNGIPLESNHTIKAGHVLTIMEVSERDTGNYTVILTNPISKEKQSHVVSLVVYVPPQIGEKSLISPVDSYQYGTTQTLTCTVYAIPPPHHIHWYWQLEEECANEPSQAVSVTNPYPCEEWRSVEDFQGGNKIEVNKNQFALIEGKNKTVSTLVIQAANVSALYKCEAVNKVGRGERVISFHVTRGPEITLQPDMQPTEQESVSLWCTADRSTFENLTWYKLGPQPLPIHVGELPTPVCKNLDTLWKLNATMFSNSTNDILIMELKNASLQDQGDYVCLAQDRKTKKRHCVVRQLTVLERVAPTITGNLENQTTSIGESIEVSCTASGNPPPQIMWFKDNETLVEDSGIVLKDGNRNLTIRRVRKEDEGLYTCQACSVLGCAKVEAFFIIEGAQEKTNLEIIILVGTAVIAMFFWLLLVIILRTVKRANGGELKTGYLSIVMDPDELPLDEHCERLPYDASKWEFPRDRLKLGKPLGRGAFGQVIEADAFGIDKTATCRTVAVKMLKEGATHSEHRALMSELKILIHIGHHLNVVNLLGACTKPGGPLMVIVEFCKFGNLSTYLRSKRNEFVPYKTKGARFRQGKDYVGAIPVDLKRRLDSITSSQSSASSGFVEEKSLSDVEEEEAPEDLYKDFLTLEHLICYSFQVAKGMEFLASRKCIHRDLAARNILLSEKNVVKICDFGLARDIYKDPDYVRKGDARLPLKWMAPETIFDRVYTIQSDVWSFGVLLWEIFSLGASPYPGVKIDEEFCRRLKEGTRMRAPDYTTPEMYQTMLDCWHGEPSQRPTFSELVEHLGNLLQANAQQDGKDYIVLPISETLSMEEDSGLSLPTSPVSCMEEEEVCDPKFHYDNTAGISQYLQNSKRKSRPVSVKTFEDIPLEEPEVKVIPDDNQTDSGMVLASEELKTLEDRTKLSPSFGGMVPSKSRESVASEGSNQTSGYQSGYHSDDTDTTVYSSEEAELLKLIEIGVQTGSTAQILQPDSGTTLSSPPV

In the case of `N#CC1(c2ccc(NC(=O)c3cccnc3NCc3ccncc3)cc2)CCCC1` [apatinib, reference compound], the “selectivity for VEGFR-2 over other kinases” value on VEGFR-2 is “highly selective for VEGFR-2”. In data set [1] (setting [3]), the “prolongation of median overall survival” value was 1.8 months and the “prolongation of median progression-free survival” value was 0.8 months. The adverse events result in data set [1] (apatinib alone) is given as “controllable”. Besides, the “Relative tumor volume D21” value in data set [2] (RTV=VT/V0, day 21) was 9.27. Also, the “% Tumor inhibition rate D21” value in data set [2] (day 21, vs HIgG control) amounted to 25.67%. For the same molecule, the “Mean tumor volume (mm^3) D21” value in data set [2] (day 21 after initial administration, 8 mice/group) is 1263.86 mm^3.
